# Test results as given in patent US6852755B1 (priority 1999, dated 2005).
# Tested on: breast carcinoma xenograft (50% MDA MB361 cells expressing β-galactosidase plus 50% MDA MB361-STCPG2(O)3 cells expressing surface tethered carboxypeptidase G2 …)
# Parameters: species or system Nu/Nu BalbC mouse
# Details: mouse, in vivo
Compound,time for which a 50% survival rate was provided,time up to which 50% survival was found post-treatment
"O=C(O)CC[C@H](NC(=O)c1cc(F)c(N(CCI)CCI)c(F)c1)C(=O)O [Example 1, {3,5-difluoro-4-[bis(2-iodoethyl)amino]benzoyl}-L-glutamic acid]",over 200 days,–
"O=C(O)CC[C@H](NC(=O)c1ccc(N(CCCl)CCCl)c(F)c1)C(=O)O [B, {3-fluoro-4-[bis(2-chloroethyl)amino]benzoyl}-L-glutamic acid]",–,about 70 days
